The values below come from ChEMBL document CHEMBL4346715, “Antibacterial activity study of 1,2,4-triazole derivatives” (Eur J Med Chem, 2019).

For orientation: MIC means the lowest concentration found to suppress growth. A high value points to a need for much substance.

In one test the test system is Bacillus cereus. Description: Antibacterial activity against Bacillus cereus ATCC 10876 after 24 hrs by microdilution method. Type of test: functional. The conditions noted are these: ATCC 10876, 24 h. On the technique in general: Broth dilution looks for growth in wells or tubes with falling amounts of substance.
A further test concerns Enterococcus faecalis. Description: Antibacterial activity against Enterococcus faecalis ATCC 29212 after 24 hrs by microdilution method. The format is functional. The conditions noted are these: ATCC 29212, 24 h.
Test [1] concerns Staphylococcus aureus. Put plainly: Antibacterial activity against Staphylococcus aureus ATCC 25923 after 24 hrs by microdilution method. Type of test: functional. The conditions noted are these: ATCC 25923, 24 h.
The test system of the next test is Proteus mirabilis. Put plainly: Antibacterial activity against Proteus mirabilis ATCC 35659 after 24 hrs by microdilution method. The format is functional. The conditions noted are these: ATCC 35659, 24 h.
Test [2] has as its system Escherichia coli. Description: Antibacterial activity against Escherichia coli ATCC 25922 after 24 hrs by microdilution method. The format is functional. The conditions noted are these: ATCC 25922, 24 h.
Test [3] concerns Pseudomonas aeruginosa. Description: Antibacterial activity against Pseudomonas aeruginosa ATCC 27853 after 24 hrs by microdilution method. The format is functional. The conditions noted are these: ATCC 27853, 24 h.
Another test deals with Candida albicans. Put plainly: Antifungal activity against Candida albicans ATCC 50193 after 24 hrs by microdilution method. The format is functional. The conditions noted are these: ATCC 50193, 24 h.
Another test relates to Aspergillus brasiliensis. Description: Antifungal activity against Aspergillus brasiliensis ATCC 16404 after 24 hrs by microdilution method. The format is functional. The conditions noted are these: ATCC 16404, 24 h.
The next test relates to Listeria monocytogenes. Put plainly: Antibacterial activity against Listeria monocytogenes ATCC 35152 after 24 hrs by broth microdilution method. The format is functional. The conditions noted are these: ATCC 35152, 24 h.
Test [4] has as its system Pseudomonas aeruginosa. Put plainly: Antibacterial activity against Pseudomonas aeruginosa ATCC 27853 after 24 hrs by broth microdilution method. The format is functional. The conditions noted are these: ATCC 27853, 24 h.
The subject of a further test is Micrococcus luteus. Put plainly: Antibacterial activity against Micrococcus luteus incubated for 18 hrs post 30 mins pre-diffusion by disk diffusion method. Type of test: functional. In general terms: Agar diffusion results depend on both activity and mobility in agar.
The subject of test [5] is Bacillus subtilis. Put plainly: Antibacterial activity against Bacillus subtilis incubated for 18 hrs post 30 mins pre-diffusion by disk diffusion method. The format is functional.
Test [6] has as its system Escherichia coli. Put plainly: Antibacterial activity against Escherichia coli incubated for 18 hrs post 30 mins pre-diffusion by disk diffusion method. The format is functional.
For a further test, the system named is Listeria innocua. Description: Antibacterial activity against Listeria innocua incubated for 18 hrs post 30 mins pre-diffusion by disk diffusion method. Type of test: functional.
Test [7] concerns Staphylococcus aureus. Put plainly: Antibacterial activity against methicillin-resistant Staphylococcus aureus incubated for 18 hrs post 30 mins pre-diffusion by disk diffusion method. Type of test: functional.
The subject of the next test is Bacillus anthracis. Description: Antibacterial activity against Bacillus anthracis incubated for 18 hrs post 30 mins pre-diffusion by disk diffusion method. The format is functional.
Test [8] deals with Escherichia coli. Description: Antibacterial activity against Escherichia coli. Type of test: functional.
Test [9] concerns Staphylococcus aureus. Put plainly: Antibacterial activity against Staphylococcus aureus. Type of test: functional.
Another test deals with Streptococcus pneumoniae. Description: Antibacterial activity against Streptococcus pneumoniae. Type of test: functional.
Test [10] relates to Bacillus subtilis. Put plainly: Antibacterial activity against Bacillus subtilis. The format is functional.
In the next test the test system is Clostridium tetani. Description: Antibacterial activity against Clostridium tetani. The format is functional.
In test [11] the test system is Pseudomonas aeruginosa. Description: Antibacterial activity against Pseudomonas aeruginosa. The format is functional.
Test [12] relates to Staphylococcus aureus. Description: Antibacterial activity against Staphylococcus aureus incubated for 18 hrs post 30 mins pre-diffusion by disk diffusion method. The format is functional.
Test [13] concerns Staphylococcus aureus. Put plainly: Antibacterial activity against Staphylococcus aureus ATCC 49444 after 24 hrs by broth microdilution method. The format is functional. The settings on record: ATCC 49444, 24 h.
A further test concerns Salmonella typhimurium. Put plainly: Antibacterial activity against Salmonella typhimurium ATCC 14028 after 24 hrs by broth microdilution method. The conditions noted are these: Salmonella enterica, ATCC 14028, 24 h. Type of test: functional, Salmonella enterica subsp. enterica serovar Typhimurium.
Test [14] deals with Escherichia coli. Description: Antibacterial activity against Escherichia coli after 24 hrs by broth microdilution method. The format is functional.

In brackets after ≈: the same amount, converted by molar mass.

As for `CCCCCCCCCCCCCCCCn1nnc(-c2n[nH]c(=S)n2-c2ccccc2)c1-c1n[nH]c(=S)n1-c1ccccc1`, the MIC with Bacillus cereus, in the test on Enterococcus faecalis, in the test with Staphylococcus aureus [1], with Proteus mirabilis, in the test on Escherichia coli [2] and in the test on Pseudomonas aeruginosa [3] was 1 to 128 µg/mL (≈ 1.55 to 199 µM) in each case. Besides, the MIC against Candida albicans and with Aspergillus brasiliensis was 1 to 128 µg/mL (≈ 1.55 to 199 µM) each time.

Take `CCCCCCCCCCn1nnc(-c2n[nH]c(=S)n2N)c1-c1n[nH]c(=S)n1N`: the MIC in the test with Bacillus cereus, in the test with Enterococcus faecalis, with Staphylococcus aureus [1], against Proteus mirabilis, against Escherichia coli [2] and against Pseudomonas aeruginosa [3] was 1 to 128 µg/mL (≈ 2.29 to 293 µM) throughout. Moreover, the MIC in the test with Candida albicans and against Aspergillus brasiliensis was 1 to 128 µg/mL (≈ 2.29 to 293 µM) throughout.

On to `O=C(O)c1cn(C2CC2)c2cc(N3CCNCC3)c(F)cc2c1=O` [CIPROFLOXACIN], for which the MIC in the test on Listeria monocytogenes is 3.9 µg/mL (≈ 11.8 µM); in the test on Pseudomonas aeruginosa [4], 3.9 µg/mL (≈ 11.8 µM); against Bacillus cereus, 1 to 8 µg/mL (≈ 3.02 to 24.1 µM); in the test with Enterococcus faecalis, 1 to 8 µg/mL (≈ 3.02 to 24.1 µM); in the test on Staphylococcus aureus [1], 1 to 8 µg/mL (≈ 3.02 to 24.1 µM); against Proteus mirabilis, 1 to 8 µg/mL (≈ 3.02 to 24.1 µM). Besides, the MIC against Escherichia coli [2], with Pseudomonas aeruginosa [3], in the test with Candida albicans and against Aspergillus brasiliensis was 1 to 8 µg/mL (≈ 3.02 to 24.1 µM) each time.

With `CCCCCCCCCCn1nnc(-c2n[nH]c(=S)n2-c2ccccc2)c1-c1n[nH]c(=S)n1-c1ccccc1`, the MIC against Bacillus cereus, in the test on Enterococcus faecalis, in the test on Staphylococcus aureus [1], against Proteus mirabilis, with Escherichia coli [2] and in the test on Pseudomonas aeruginosa [3] was 1 to 128 µg/mL (≈ 1.79 to 229 µM) in each case. The MIC against Candida albicans and in the test with Aspergillus brasiliensis was 1 to 128 µg/mL (≈ 1.79 to 229 µM) throughout.

In the case of `COC(=O)c1ncn(CN(CCCO)Cn2cnc(C(=O)OC)n2)n1`, the MIC in the test with Micrococcus luteus, against Bacillus subtilis [5], against Escherichia coli [6] and against Listeria innocua was 7 to 15 µg/mL (≈ 19.8 to 42.5 µM) throughout.

Regarding `CCCCCCCCCCCCn1nnc(-c2n[nH]c(=S)n2-c2ccccc2)c1-c1n[nH]c(=S)n1-c1ccccc1`, the MIC against Bacillus cereus, against Enterococcus faecalis, in the test with Staphylococcus aureus [1], in the test on Proteus mirabilis, in the test with Escherichia coli [2] and against Pseudomonas aeruginosa [3] was 1 to 128 µg/mL (≈ 1.7 to 218 µM) each time. Moreover, the MIC against Candida albicans and in the test on Aspergillus brasiliensis was 1 to 128 µg/mL (≈ 1.7 to 218 µM) in each case.

With `CN[C@H](CC(C)C)C(=O)N[C@H]1C(=O)N[C@@H](CC(N)=O)C(=O)N[C@H]2C(=O)N[C@H]3C(=O)N[C@H](C(=O)N[C@H](C(=O)O)c4cc(O)cc(O)c4-c4cc3ccc4O)[C@H](O)c3ccc(c(Cl)c3)Oc3cc2cc(c3O[C@@H]2O[C@H](CO)[C@@H](O)[C@H](O)[C@H]2O[C@H]2C[C@](C)(N)[C@H](O)[C@H](C)O2)Oc2ccc(cc2Cl)[C@H]1O` [VANCOMYCIN], the MIC against Staphylococcus aureus [7] and in the test on Bacillus anthracis was 8 µg/mL (≈ 5.52 µM) each time.

With `CC1(C)S[C@@H]2[C@H](NC(=O)[C@H](N)c3ccccc3)C(=O)N2[C@H]1C(=O)O` [AMPICILLIN], the MIC was 100 to 250 µg/mL (≈ 286 to 715 µM) in the test on Escherichia coli [8]; 10.9 µg/mL (≈ 31.2 µM) against Staphylococcus aureus [9]; 100 to 250 µg/mL (≈ 286 to 715 µM) in the test on Streptococcus pneumoniae; 100 to 250 µg/mL (≈ 286 to 715 µM) with Bacillus subtilis [10]; 100 to 250 µg/mL (≈ 286 to 715 µM) against Clostridium tetani; 31 to 1000 µg/mL (≈ 88.7 to 2860 µM) against Staphylococcus aureus [7]. The MIC in the test with Bacillus anthracis was 31 to 1000 µg/mL (≈ 88.7 to 2860 µM); in the test with Pseudomonas aeruginosa [11], 10.2 µg/mL (≈ 29.2 µM).

As for `FC(F)(F)c1cc(-c2nnc(Sc3cc(Cl)nc(Sc4ccccc4)n3)[nH]2)cc(C(F)(F)F)c1`, the MIC against Escherichia coli [6] was 1.8 µg/mL (≈ 3.37 µM); against Staphylococcus aureus [12], 3.1 µg/mL (≈ 5.81 µM); against Staphylococcus aureus [7], 0.75 to 1.8 µg/mL (≈ 1.4 to 3.37 µM); in the test on Bacillus anthracis, 0.75 to 1.8 µg/mL (≈ 1.4 to 3.37 µM).

Consider `Cc1nc(-c2ccccc2)sc1-c1nnc(S)n1/N=C/c1ccc(Cl)cc1Cl`, for which the MIC against Listeria monocytogenes, against Staphylococcus aureus [13], against Pseudomonas aeruginosa [4], in the test on Salmonella typhimurium and in the test with Escherichia coli [14] was 1.95 to 62.5 µg/mL (≈ 4.37 to 140 µM) in each case.

Take `Cn1cnc(CNCc2ncn(C)n2)n1`: the MIC in the test on Micrococcus luteus, in the test on Bacillus subtilis [5], with Escherichia coli [6] and against Listeria innocua was 7 to 15 µg/mL (≈ 33.8 to 72.4 µM) each time.

`NC[C@H]1O[C@H](O[C@H]2[C@H](O)[C@@H](O[C@H]3O[C@H](CO)[C@@H](O)[C@H](N)[C@H]3O)[C@H](N)C[C@@H]2N)[C@H](O)[C@@H](O)[C@@H]1O` [KANAMYCIN]: the MIC in the test on Staphylococcus aureus [7] and against Bacillus anthracis was 31 to 1000 µg/mL (≈ 64 to 2060 µM) throughout.

With `CCCCCCCCCCCCCCn1nnc(-c2n[nH]c(=S)n2N)c1-c1n[nH]c(=S)n1N`, the MIC in the test with Bacillus cereus, in the test on Enterococcus faecalis, against Staphylococcus aureus [1], in the test with Proteus mirabilis, in the test on Escherichia coli [2] and in the test on Pseudomonas aeruginosa [3] was 1 to 16 µg/mL (≈ 2.03 to 32.4 µM) in each case. Besides, the MIC against Candida albicans and in the test on Aspergillus brasiliensis was 1 to 16 µg/mL (≈ 2.03 to 32.4 µM) in each case.
